PMC5215686 (Journal of medicinal chemistry, 2016)
Where “and” joins values, the source holds several entries; their conditions need not be identical. Identical values can stand only once.

Columns and labels:
HEK293T cells = assay: Cytotoxicity, CellTiter-Glo; assay type: cell-based, human; conditions: for Cytotoxicity in words: 18 h, 100 μM; for Cytotoxicity (18 h) LD50: CellTiter-Glo, n = 4
NIH Swiss Webster mice [1] = assay: Marble burying assay; assay type: in vivo
[2] = Plasma and brain exposure after dosing in rats; assay type: in vivo, Sprague-Dawley rats; conditions: rat; for Brain concentration of dosed ligand, 60 min / Total Plasma Concentration, 15 min / Total Plasma Concentration, 30 min / Total Plasma Concentration, 60 min / Brain concentration of dosed ligand, 120 min / Total Plasma Concentration, 120 min: p.o. 10 mg/kg; for Plasma exposure in words: i.v. (1 mg/kg) or p.o. (10 mg/kg); for Total Plasma Concentration, 15 min / Total Plasma Concentration, 30 min / Total Plasma Concentration, 60 min / Brain concentration of dosed ligand, 120 min / Total Plasma Concentration, 120 min: BQL: quantifiable limit < 12.2 nM
Sprague-Dawley rats = assay: Vogel conflict test; assay type: in vivo; conditions: rat
NIH Swiss Webster mice [3] = assay: Rotarod assay; assay type: in vivo; conditions: 4 r.p.m., 2 min; for Rotarod motorsensory behavior, 10 mg/kg: i.p. 10 mg/kg
[4] = Rat pharmacokinetics i.v. and i.p., plasma and brain concentrations; assay type: in vivo, Sprague-Dawley rats
[5] = Solubility by light scattering; assay type: physicochemical; conditions: pH=7, by light scattering

Compound: C#Cc1ccc2c(c1)C(c1ccccn1)=NCc1c(-c3nc(CC)no3)ncn1-2 [compound 7]
- Cytotoxicity in words (HEK293T cells): non-toxic
- Marble burying vs. vehicle, 10 mg/kg (NIH Swiss Webster mice [1]; i.p. 10 mg/kg, 30 min prior to testing): significant reduction
- Sedation-like behavior observed in marble burying (NIH Swiss Webster mice [1]; i.p. 30 mg/kg): weak signs of sedation
- Brain concentration of dosed ligand, 60 min [2]: (60) 3090 nM

Compound: C#Cc1ccc2c(c1)C(c1ccccn1)=NCc1c(C(=O)OCC)ncn1-2 [compound 2]
- Cytotoxicity in words (HEK293T cells): non-toxic
- Plasma exposure in words [2]: poor
- Total Plasma Concentration, 15 min [2]: BQL ^c
- Total Plasma Concentration, 30 min [2]: BQL ^c
- Total Plasma Concentration, 60 min [2]: BQL ^c
- Brain concentration of dosed ligand, 120 min [2]: (120) BQL ^c
- Total Plasma Concentration, 120 min [2]: BQL ^c
- Vogel conflict, difference from vehicle in words, 30 mg/kg (Sprague-Dawley rats; 30 mg/kg i.p.): no discernable difference

Compound: [2H]C([2H])(C)OC(=O)c1ncn2c1CN=C(c1ccccn1)c1cc(C#C)ccc1-2 [compound 5]
- Plasma exposure in words [2]: poor
- Total Plasma Concentration, 15 min [2]: BQL ^c
- Total Plasma Concentration, 30 min [2]: BQL ^c
- Total Plasma Concentration, 60 min [2]: BQL ^c
- Brain concentration of dosed ligand, 120 min [2]: (120) BQL ^c
- Total Plasma Concentration, 120 min [2]: BQL ^c

Compound: C#Cc1ccc2c(c1)C(c1ccccn1)=NCc1c(C(=O)O)ncn1-2 [compound 4]
- Brain concentration of dosed ligand, 120 min [2]: (120) BQL ^c

Compound: CNC1=Nc2ccc(Cl)cc2C(c2ccccc2)=[N+]([O-])C1 [CDAP, chlordiazepoxide, reference compound]
- Vogel conflict, response rate in the unpunished session, 20 mg/kg (Sprague-Dawley rats; 20 mg/kg i.p.): Neither
- Vogel conflict, punished response over control, 20 mg/kg (Sprague-Dawley rats; 20 mg/kg i.p., P < 0.05): 330%

Compound: C#Cc1ccc2c(c1)C(c1ccccn1)=NCc1c(-c3nc(C)no3)ncn1-2 [compound 6]
- Cytotoxicity in words (HEK293T cells): non-toxic
- Rotarod motorsensory behavior, 10 mg/kg (NIH Swiss Webster mice [3]): very minor impairment

Compound: C#Cc1ccc2c(c1)C(c1ccccn1)=NCc1c(-c3cnco3)ncn1-2 [compound 9, 5-(8-Ethynyl-6-(pyridin-2-yl)-4H-benzo[f]imidazo[1,5-a][1,4]diazepin-3-yl)oxazole]
- time of Cmax ([4]; 10 mg/kg i.p.): 2.0 h
- Unbound Concentration (Cu), Brain ([4]; 4 hours after 10 mg/kg i.p., free fraction x total concentration): 363 nM
- Cytotoxicity in words (HEK293T cells): non-toxic
- solubility [5]: good
- Brain concentration of dosed ligand, 60 min [2]: (60) 3640 nM
- Vogel conflict, punished response vs. control, 3 mg/kg (Sprague-Dawley rats; 3 mg/kg i.p., 30 min pretreatment): no increase in response
- Vogel conflict, increase of punished response rate over control, 30 mg/kg (Sprague-Dawley rats; 30 mg/kg i.p., 30 min pretreatment): about 220%
- Rotarod failures, 30 mg/kg (NIH Swiss Webster mice [3]; i.p. 30 mg/kg): zero failures
- Rotarod performance / ataxia, 30 mg/kg (NIH Swiss Webster mice [3]; i.p. 30 mg/kg): did not significantly alter rotarod performance compared to vehicle

Compound: C#Cc1ccc2c(c1)C(c1ccccc1F)=NCc1c(-c3cnco3)ncn1-2 [compound 10]
- Cytotoxicity (18 h) LD50 (HEK293T cells): 61.5 µM and 61.5 ± 10 µM
- Rotarod motorsensory behavior, 10 mg/kg (NIH Swiss Webster mice [3]): very minor impairment

Compound: C#Cc1ccc2c(c1)C(c1ccccc1)=NCc1c(-c3cnco3)ncn1-2 [compound 8]
- Cytotoxicity (18 h) LD50 (HEK293T cells): 66.8 µM and 66.8 ± 9 µM
